In US5464861A, “2-thioindoles (selenoindoles) and related disulfides (selenides) which inhibit protein tyrosine kinases and which have antitumor properties” (Warner-Lambert, priority 1993, dated 1995) one finds IC50 and inhibition data, which are given here for 33 molecules.

SMILES strings stand for the structures. Read-outs that look alike come from different tables or passages of the source. A value given as a limit tells only on which side of the number the result lay.

Test [1] has as its system Swiss 3T3 mouse fibroblasts. Put plainly: Growth inhibition assay, Swiss 3T3 fibroblasts. The test is classed as cell-based.
Protocol: Swiss 3T3 mouse fibroblasts were maintained in dMEM/F12 media containing 10% fetal calf serum. […] The cells were grown at 37° C. under 5% CO2 for 72 hours and then counted by Coulter counter. The data were expressed as the concentration of inhibitor necessary to decrease the growth rate by 50%.
The target in test [2] is T1, epidermal growth factor receptor tyrosine kinase (Homo sapiens, UniProt P00533).
T1 construct: A native 170,000 epidermal growth factor receptor-kinase complex from shed plasma membrane vesicles; endogenous in cells
Put plainly: EGF receptor tyrosine kinase assay (P^32 incorporation in GAT). It is filed as biochemical. As to conditions: for inhibition at 100 µM: EGRF-R, read-out: % Inhibition at 100 μM (EGFR TK). Summed up: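 Receptor pre-activated with 150 ng EGF for 10 min at room temperature. ATP with or without compound then added and incubated 10 min at room temperature.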

The target in test [3] is T2, human PDGF β receptor intracellular tyrosine kinase domain (Homo sapiens, UniProt P09619).
T2 construct: human PDGF β receptor intracellular tyrosine kinase domain; made in house; host or cells: SF9 insect cells, recombinant baculovirus; cell lysates used
Put plainly: PDGF receptor tyrosine kinase inhibition assay (P^32 incorporation in Glu-Tyr). It is filed as biochemical. As to conditions: for inhibition at 100 µM: read-out: % Inhibition at 100 μM (PDGFR TK).
Protocol: Recombinant baculovirus containing human PDGF β receptor intracellular tyrosine kinase domain was used to infect SF9 cells to overexpress the protein, and cell lysates were used for the assay. The ability of the tyrosine kinase to phosphorylate glutamate tyrosine substrate in the presence of P^32 -ATP and inhibitor was measured by counting the incorporation of P^32 in Glu-Tyr in TCAprecipitable material.

[4] abbreviates: Swiss-3T3, 72 h, read-out: IC50 growth inhibition.
[5] abbreviates: Table 2, EGRF-R, IC50 entries, read-out: IC50 (EGFR TK).
[6] abbreviates: Swiss 3T3, 72 hours, Table 2, read-out: IC50 growth inhibition.

T1 sequence (P00533 25-1210): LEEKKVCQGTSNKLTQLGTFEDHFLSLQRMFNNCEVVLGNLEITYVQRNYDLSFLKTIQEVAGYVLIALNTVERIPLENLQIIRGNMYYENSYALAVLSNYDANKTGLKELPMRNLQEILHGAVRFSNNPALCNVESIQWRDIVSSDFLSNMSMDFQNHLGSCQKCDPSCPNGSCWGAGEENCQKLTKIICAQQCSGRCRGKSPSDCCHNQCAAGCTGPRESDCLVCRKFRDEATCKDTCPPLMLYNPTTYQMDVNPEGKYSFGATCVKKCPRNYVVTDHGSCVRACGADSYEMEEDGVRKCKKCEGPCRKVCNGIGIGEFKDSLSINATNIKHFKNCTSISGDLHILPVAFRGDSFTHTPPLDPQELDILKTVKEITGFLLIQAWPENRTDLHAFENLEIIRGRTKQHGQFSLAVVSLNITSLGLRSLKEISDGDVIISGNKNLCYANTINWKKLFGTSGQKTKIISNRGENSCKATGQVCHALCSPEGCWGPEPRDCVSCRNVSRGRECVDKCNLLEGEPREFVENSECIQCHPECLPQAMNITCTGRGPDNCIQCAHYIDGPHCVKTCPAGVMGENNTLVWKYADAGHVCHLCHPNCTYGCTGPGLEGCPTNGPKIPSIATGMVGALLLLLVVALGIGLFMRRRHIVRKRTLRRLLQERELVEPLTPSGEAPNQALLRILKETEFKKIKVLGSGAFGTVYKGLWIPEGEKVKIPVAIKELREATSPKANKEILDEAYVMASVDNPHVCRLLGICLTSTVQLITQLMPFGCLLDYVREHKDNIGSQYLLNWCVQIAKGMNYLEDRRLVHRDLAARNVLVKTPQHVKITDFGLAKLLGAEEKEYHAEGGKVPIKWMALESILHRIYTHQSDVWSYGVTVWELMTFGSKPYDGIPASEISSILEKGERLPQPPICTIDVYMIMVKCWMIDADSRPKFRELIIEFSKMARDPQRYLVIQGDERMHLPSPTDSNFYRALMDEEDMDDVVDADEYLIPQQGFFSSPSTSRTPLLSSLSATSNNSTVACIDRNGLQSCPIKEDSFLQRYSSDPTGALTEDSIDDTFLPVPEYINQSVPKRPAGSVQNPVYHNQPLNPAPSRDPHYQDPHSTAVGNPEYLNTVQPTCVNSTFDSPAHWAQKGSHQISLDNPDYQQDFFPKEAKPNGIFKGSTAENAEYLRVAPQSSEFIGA
T1 sequence (P01133 971-1023 partner limits assumed): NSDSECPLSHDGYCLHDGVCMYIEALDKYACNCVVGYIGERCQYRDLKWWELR
T2 sequence (P09619 554-1106 limits assumed): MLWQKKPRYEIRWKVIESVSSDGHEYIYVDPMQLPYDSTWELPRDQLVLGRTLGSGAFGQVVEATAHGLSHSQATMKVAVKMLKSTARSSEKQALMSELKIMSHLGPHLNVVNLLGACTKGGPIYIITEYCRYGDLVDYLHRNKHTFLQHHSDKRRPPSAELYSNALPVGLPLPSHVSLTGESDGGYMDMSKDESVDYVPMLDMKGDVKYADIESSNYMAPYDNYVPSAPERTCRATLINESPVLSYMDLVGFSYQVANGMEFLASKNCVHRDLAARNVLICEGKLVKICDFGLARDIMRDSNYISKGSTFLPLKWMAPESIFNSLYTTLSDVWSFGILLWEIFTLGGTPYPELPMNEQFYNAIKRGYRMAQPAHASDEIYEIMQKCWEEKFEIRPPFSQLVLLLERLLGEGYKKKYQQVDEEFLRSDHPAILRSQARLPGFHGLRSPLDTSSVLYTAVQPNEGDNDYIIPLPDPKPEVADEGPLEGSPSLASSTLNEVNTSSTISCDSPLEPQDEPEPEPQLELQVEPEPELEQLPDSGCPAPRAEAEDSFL

Consider `NC(Cc1c(SSc2[nH]c3ccccc3c2CC(N)C(=O)NCc2ccccc2)[nH]c2ccccc12)C(=O)NCc1ccccc1` (racemic) [Compound 62, 2,2'-dithiobis[α-amino-N-benzyl-3-(3-indolyl)propanamide]], for which the half-inhibitory concentration (IC50) in test [1] (setting [4]) amounted to 5.3 µM; in test [2] (setting [5]), 6 µM. Also, the inhibition at 100 µM in test [3] (at 100 μM, PDGF-R) turned out to be 71%.

In the case of `O=C(O)CCC1C(=S)Nc2ccccc21` (stereo not shown) [Compound 7, 3-(2-thioxo-3-indolinyl)propanoic acid], the IC50 came out at 94 µM in test [1] (setting [6]) and 1.3 µM in test [2] (setting [5]).

Regarding `COC(=O)CCC1C(=S)Nc2ccccc21` (stereo not shown) [Compound 9, methyl 3-(2-thioxo-3-indolinyl)propanoate], the IC50 in test [1] (setting [6]) turned out to be 16 µM. The inhibition at 100 µM in test [2] was 52%.

As to `CCOC(=O)CCC1C(=S)Nc2ccccc21` (stereo not shown) [Compound 10, ethyl 3-(2-thioxo-3-indolinyl) propanoate], in test [1] (setting [6]), the IC50 was found to be 34 µM. The inhibition at 100 µM in test [2] is 10%.

On to `COC(=O)Cc1c(SSc2[nH]c3ccccc3c2CC(=O)OC)[nH]c2ccccc12` [Compound 27, bis[methylindolyl-3-acetate-(2)]disulfide], for which the half-inhibitory concentration (IC50) came out at 2.3 µM in test [1] (setting [6]) and 17.8 µM in test [2] (setting [5]).

Regarding `O=C(O)Cc1c(SSc2[nH]c3ccccc3c2CC(=O)O)[nH]c2ccccc12` [Compound 29, bis[indolyl-3-acetic acid-(2)] disulfide], the 50% inhibitory concentration (IC50) in test [1] (setting [6]) was 25 to 100 µM; in test [2] (setting [5]), 8.3 µM.

For the molecule `O=C(O)Cc1c(SSSc2[nH]c3ccccc3c2CC(=O)O)[nH]c2ccccc12` [Compound 30, bis[indolyl-3-acetic acid-(2)]trisulfide], the concentration for half-maximal inhibition (IC50) was found to be 8 µM in test [1] (setting [6]) and 9.3 µM in test [2] (setting [5]).

On to `COC(=O)Cc1c(SSSc2[nH]c3ccccc3c2CC(=O)OC)[nH]c2ccccc12` [Compound 31, bis[methylindolyl-3-acetate-(2)]trisulfide], for which the half-inhibitory concentration (IC50) is 1 µM in test [1] (setting [6]) and 35.5 µM in test [2] (setting [5]).

On to `Cn1c(SSc2c(CC(=O)O)c3ccccc3n2C)c(CC(=O)O)c2ccccc21` [Compound 32, bis[1-methylindolyl-3-acetic acid-(2)]-disulfide], for which the half-maximal inhibitory concentration (IC50) in test [1] (setting [6]) was 36 µM; in test [2] (setting [5]) it was 34.5 µM. For the same molecule, the inhibition at 100 µM in test [3] (at 100 μM, PDGF-R) is 4.7%.

Take `CCOC(=O)Cc1c(SSc2c(CC(=O)OCC)c3ccccc3n2C)n(C)c2ccccc12` [Compound 33, bis[ethyl 1-methylindolyl-3-acetate-(2)]disulfide]: the results for the IC50 in test [1] (setting [4]) and in test [2] (setting [5]) were 3 µM and 39 µM, respectively. In addition, the inhibition at 100 µM in test [3] (at 100 μM, PDGF-R) was found to be 16.7%.

As for `O=C(Cc1c(SSc2[nH]c3ccccc3c2CC(=O)NCc2ccccc2)[nH]c2ccccc12)NCc1ccccc1` [Compound 34, 2,2'-dithiobis[N-benzyl 2-(3-indolyl)acetamide]], the half-maximal inhibitory concentration (IC50) in test [1] (setting [6]) was 2.7 µM; in test [2] (setting [5]), 38 µM. For the same molecule, in test [3] (at 100 μM, PDGF-R), the inhibition at 100 µM was found to be 12.8%.

For the molecule `O=C(O)CCc1c(SSc2[nH]c3ccccc3c2CCC(=O)O)[nH]c2ccccc12` [Compound 36, bis[indolyl-3-propanoic acid-(2)]disulfide], the half-inhibitory concentration (IC50) was determined as 59 µM in test [1] (setting [6]) and 4.8 µM in test [2] (setting [5]).

`CCOC(=O)CCc1c(SSc2[nH]c3ccccc3c2CCC(=O)OCC)[nH]c2ccccc12` [Compound 38, bis[ethylindolyl-3-propanoate-(2)] disulfide]: the IC50 in test [1] (setting [6]) worked out at 1.6 µM. In addition, the inhibition at 100 µM in test [2] was determined as 36.5%.

Turning to `COC(=O)CCc1c(SSc2[nH]c3ccccc3c2CCC(=O)OC)[nH]c2ccccc12` [Compound 39], the values for the 50% inhibitory concentration (IC50) in test [1] (setting [6]) and in test [2] (setting [5]) were 7.4 µM and 20.6 µM, respectively.

For `COC(=O)CCc1c(SSc2c(CCC(=O)OC)c3ccccc3n2C)n(C)c2ccccc12` [Compound 40, 2,2'-dithiobis[methyl 3-(1-methyl-3-indolyl)propanoate]], in test [1] (setting [6]), the half-maximal inhibitory concentration (IC50) was determined as 5.2 µM. The inhibition at 100 µM in test [2] amounted to 16.3%.

For `Cc1ccc2[nH]c(SSc3[nH]c4ccc(C)cc4c3CCC(=O)O)c(CCC(=O)O)c2c1` [Compound 41, bis[5-methylindolyl-3-propanoic acid-(2)]disulfide], the IC50 in test [1] (setting [6]) is more than 25 µM; in test [2] (setting [5]), 8.4 µM.

Regarding `CCOC(=O)CCc1c(SSc2[nH]c3cc(C)ccc3c2CCC(=O)OCC)[nH]c2cc(C)ccc12` [Compound 44, bis[ethyl 6-methylindolyl-3-propanoate-(2)] disulfide], the IC50 in test [1] (setting [6]) is 2.4 µM. For the same molecule, the inhibition at 100 µM in test [2] was found to be 16.6%; in test [3] (at 100 μM, PDGF-R), 5%.

Consider `CCOC(=O)CCc1c(SSc2[nH]c3c(C)cccc3c2CCC(=O)OCC)[nH]c2c(C)cccc12` [Compound 46, bis[ethyl 7-methylindolyl-3-propanoate-(2)] disulfide], for which the IC50 in test [1] (setting [6]) came out at 2.7 µM. Further, the inhibition at 100 µM in test [2] was determined as 11.4%.

In the case of `O=C(CCc1c(SSc2[nH]c3ccccc3c2CCC(=O)NCc2ccccc2)[nH]c2ccccc12)NCc1ccccc1` [Compound 47], the 50% inhibitory concentration (IC50) in test [1] (setting [6]) was 6 µM; in test [2] (setting [5]), 0.85 µM.

As for `COC(=O)CCCc1c(SSc2c(CCCC(=O)OC)c3ccccc3n2C)n(C)c2ccccc12` [Compound 68, bis[methyl 1-methylindolyl-3-butanoate-(2)]disulfide], the IC50 in test [1] (setting [6]) turned out to be 1.8 µM. Further, the inhibition at 100 µM in test [2] worked out at 14%.

On to `CCn1c(SSc2c(C(=O)Nc3ccccc3)c3ccccc3n2CC)c(C(=O)Nc2ccccc2)c2ccccc21` [Compound 71, bis[N-phenyl 1-ethylindolyl-3-carboxamide-(2)]disulfide], for which, in test [1] (setting [4]), the half-inhibitory concentration (IC50) was 52 µM. Besides, the inhibition at 100 µM in test [2] is 20%; in test [3], 5%.

As to `Cn1c(SSc2c(C(=O)Nc3ccccc3)c3cc(Cl)ccc3n2C)c(C(=O)Nc2ccccc2)c2cc(Cl)ccc21` [Compound 73, bis[N-phenyl 5-chloro-1-methylindolyl-3-carboxamide-(2)]disulfide], the IC50 was 9.3 µM in test [1] (setting [6]) and 4.3 µM in test [2] (setting [5]). Further, in test [3] (at 100 μM, PDGF-R), the inhibition at 100 µM was 21%.

`Cc1cccc2c1c(C(=O)Nc1ccccc1)c(SSc1c(C(=O)Nc3ccccc3)c3c(C)cccc3n1C)n2C` [Compound 75, bis[N-phenyl 1,4-dimethylindolyl-3-carboxamide-(2)]disulfide]: in test [1] (setting [6]), the IC50 was 4 µM. The inhibition at 100 µM in test [2] worked out at 6%; in test [3] (at 100 μM, PDGF-R) it was 3%.

Regarding `Cc1ccc2c(c1)c(C(=O)Nc1ccccc1)c(SSc1c(C(=O)Nc3ccccc3)c3cc(C)ccc3n1C)n2C` [Compound 76, bis [N-phenyl 1,5-dimethylindolyl-3-carboxamide-(2)] disulfide], the concentration for half-maximal inhibition (IC50) in test [1] (setting [6]) came to 22 µM. Further, the inhibition at 100 µM in test [2] turned out to be 7%; in test [3] (at 100 μM, PDGF-R), 19%.

Take `COc1cccc2c1c(C(=O)Nc1ccccc1)c(SSc1c(C(=O)Nc3ccccc3)c3c(OC)cccc3n1C)n2C` [Compound 79, bis [N-phenyl 4-methoxy-1-methyl indolyl-3-carboxamide-(2)]disulfide]: in test [1] (setting [6]), the half-inhibitory concentration (IC50) was determined as 1.9 µM. Besides, the inhibition at 100 µM turned out to be 11% in test [2] and 20% in test [3] (at 100 μM, PDGF-R).

Turning to `COc1ccc2c(C(=O)Nc3ccccc3)c(SSc3c(C(=O)Nc4ccccc4)c4ccc(OC)cc4n3C)n(C)c2c1` [Compound 81, bis[N-phenyl 6-methoxy-1-methylindolyl-3-carboxamide-(2)]disulfide], the concentration for half-maximal inhibition (IC50) is 17 µM in test [1] (setting [6]) and 3.6 µM in test [2] (setting [5]). In addition, the inhibition at 100 µM in test [3] (at 100 μM, PDGF-R) was 2%.

In the case of `COc1cccc2c(C(=O)Nc3ccccc3)c(SSc3c(C(=O)Nc4ccccc4)c4cccc(OC)c4n3C)n(C)c12` [Compound 82, bis[N-phenyl 7-methoxy-1-methylindolyl-3-carboxamide-(2)]disulfide], the IC50 in test [1] (setting [6]) stood at 24 µM; in test [2] (setting [5]), 6.5 µM.

`Cn1c(SSc2c(C(=O)Nc3ccccc3)c3cccnc3n2C)c(C(=O)Nc2ccccc2)c2cccnc21` [Compound 83, 2,2'-dithiobis [N-phenyl-1-methyl-7-azaindolyl-3-carboxamide]]: the IC50 in test [1] (setting [6]) stood at 10 µM; in test [2] (setting [5]), 22.3 µM. Also, the inhibition at 100 µM in test [3] (at 100 μM, PDGF-R) worked out at 57%.

Turning to `CNC(=O)c1c(SSc2c(C(=O)NC)c3ccccc3n2C)n(C)c2ccccc12` [Compound 97, bis[N-methyl 1-methylindolyl-3-carboxamide-(2)]disulfide], the half-inhibitory concentration (IC50) came out at 1.8 µM in test [1] (setting [6]); 10.1 µM in test [2] (setting [5]); 28.1 µM in test [3] (Table 2, PDGF-R, IC50 entries, read-out: IC50 (PDGFR TK)).

Take `Cc1c(SSc2c(C)c3ccccc3n2C)n(C)c2ccccc12` [Compound 103]: in test [1] (setting [4]), the IC50 came to 3.8 µM. Also, the inhibition at 100 µM in test [2] amounted to 7%.

With `CNC(=O)c1c([Se][Se]c2c(C(=O)NC)c3ccccc3n2C)n(C)c2ccccc12` [Compound 131, 2,2'-diselenobis [N,1-dimethyl-1H -indole-3-carboxamide]], the half-inhibitory concentration (IC50) in test [1] (setting [4]) turned out to be 5.5 µM; in test [2], 5.8 µM.

`CCN(CC)CCNC(=O)c1c([Se][Se]c2c(C(=O)NCCN(CC)CC)c3ccccc3n2C)n(C)c2ccccc12` [Compound 132, 2,2'-diselenobis [N-[2-(diethylamino)ethyl]-1-methyl-1H-indole-3-carboxamide]]: the IC50 in test [1] (setting [4]) is 20 µM; in test [2] (read-out: IC50 (EGFR TK)), 4.7 µM.

Consider `CNC(=O)c1c([Se][Se]c2[nH]c3ccccc3c2C(=O)NC)[nH]c2ccccc12` [Compound 133, 2,2'-diselenobis[N-methyl-1H-indole-3-carboxamide]], for which the IC50 was less than 5 µM in test [1] (setting [4]) and 13 µM in test [2] (read-out: IC50 (EGFR TK)).

What is called IC50 is the concentration needed to halve the response being measured. A word on the inhibition: it is how much of the control response was suppressed.
